Tests used:
[1] = molecular target: recombinant CYP4F2 (rCYP4F2) (Homo sapiens (Human), UniProt P78329); assay: Inhibition of 20-HETE production by recombinant CYP4F2; assay type: biochemical
How it was run: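 LC-MS/MS read-out of 20-HETE formation, expressed as activity relative to no-inhibitor control and fitted to a Hill equation for IC50; percent inhibition also given at 1000, 500 or 100 nM. Enzyme sources: recombinant CYP4F2, recombinant CYP4A11, or human or mouse liver microsomes. Each is combined with compound and substrate (400 μM solution) and warmed 10 min at 37 °C, then incubated 25 min at 37 °C after adding NADPH (6 mM solution).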

[2] = Pharmacokinetic (PK) experiment, oral administration in rats; assay type: in vivo, Male SD rats; conditions: 20 mg/kg
How it was run: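 Fasted male SD rats (180-250 g) received 20 mg/kg orally in 30% sulfobutylether-β-cyclodextrin. Tail-vein blood sampled 15 min to 24 h post-dose into K2-EDTA; plasma protein-precipitated with acetonitrile containing internal standard and analysed by LC-MS/MS.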

20-HETE = assay: Experiment 6: level of 20-HETE in DIO rat model; assay type: in vivo, Male SD rats; conditions: DIO rats, single oral dose 25 mg/kg, 8 hours; most pronounced in the kidneys
Protocol: Experiment 6 was to investigate the effect of compound 2 on regulating the level of 20-HETE in a diet-induced obesity (DIO) rat model. Male SD rats were purchased from Guangdong Vital River Laboratory Animal Technology Co., Ltd. and housed in a barrier system animal facility. After 14 weeks of high-fat diet (HFD) induction, compound 2 was administered at a dose of 25 mg/kg once, and samples were collected after 8 hours to detect the level of 20-HETE. A solvent control group was also set up simultaneously, with 3 animals per group.

recombinant CYP4F2 (rCYP4F2), sequence (P78329 5-520): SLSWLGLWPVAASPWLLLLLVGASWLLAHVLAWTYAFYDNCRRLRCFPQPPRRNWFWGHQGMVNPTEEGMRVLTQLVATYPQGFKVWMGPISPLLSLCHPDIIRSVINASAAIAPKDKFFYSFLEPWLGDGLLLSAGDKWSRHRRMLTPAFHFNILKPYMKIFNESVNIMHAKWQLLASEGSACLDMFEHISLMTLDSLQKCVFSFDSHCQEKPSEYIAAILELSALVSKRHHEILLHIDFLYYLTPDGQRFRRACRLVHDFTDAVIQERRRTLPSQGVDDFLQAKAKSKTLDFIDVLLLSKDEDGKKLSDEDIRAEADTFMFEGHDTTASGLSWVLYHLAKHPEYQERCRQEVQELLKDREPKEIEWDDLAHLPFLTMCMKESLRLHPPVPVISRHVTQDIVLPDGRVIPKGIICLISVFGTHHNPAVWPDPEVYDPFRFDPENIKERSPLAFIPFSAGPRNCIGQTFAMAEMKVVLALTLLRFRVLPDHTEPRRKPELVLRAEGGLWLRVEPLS

Structure (SMILES): O=C1CCCN1CC1CCN(c2ccc(-c3cn[nH]c3)cc2F)CC1 [Compound 2, 1-((1-(2-fluoro-4-(1H-pyrazol-4-yl)phenyl)piperidin-4-yl)methyl)pyrrolidin-2-one]
- IC50 [1]: 15.8 nM
- absorption and blood exposure after oral administration (in words) [2]: well absorbed and exhibit high blood exposure
- AUC(0-inf) ([2]; male, SD, rat, plasma): 120 µg·h/mL
- Cmax ([2]; male, SD, rat, plasma): 10100 ng/mL
- Tmax ([2]; male, SD, rat, plasma): 3.33 h
- half-life ([2]; male, SD, rat, plasma): 5.2 h
- AUC(0-t) ([2]; male, SD, rat, plasma, read-out: AUC0-24): 115 µg·h/mL
- 20-HETE levels in the liver, kidneys, and brain tissues compared to the solvent control group (20-HETE): varying degrees of decrease

Source: patent publication US20250034116A1, “1,4-DIHETEROCYCLIC SUBSTITUTED AROMATIC RING OR AROMATIC HETEROCYCLIC COMPOUND AND USE THEREOF” (BeBetter Med Inc., priority 2022, published 2025)
